This is an account of results in US20220280644A1, “"TRPswitch" - A STEP FUNCTION CHEMO-OPTOGENETIC LIGAND” (UNIVERSITY OF UTAH RESEARCH FOUNDATION, priority 2019, published 2022).

One series deals with zebrafish Trpa1b. In words: Whole-cell patch-clamp of HEK293T cells expressing zebrafish Trpa1b. The class given is cell-based. The procedure:
Immortalized HEK293T cells or human colonic fibroblast cells (CCD-18Co; ATCC) were used. HEK293T cells were plated on […] cover slips and transiently transfected with 10 μg of Trpa1b plasmid (pCMV-zTrpa1b-FLAG) (SEQ ID NO:3) and 5 μg of mNeonGreen cDNA (Allele Biotechnology), then grown in a 6 cm plate for 24-48 h. CCD-18Co were cultured in Eagle's minimal essential medium with 10% FBS, 1× penicillin and streptomycin. CCD-18Co cells were plated on 12 mm cover slips and transiently transfected with 5 μg of zTrpa1b plasmid (pCMV-zTrpa1b-FLAG) together with 5 μg of mNeonGreen cDNA (Allele Biotechnology), then grown in a […] plate for 48-72 h. After this time, the cover slips were transferred to a recording chamber containing an extracellular solution composed of 145 mM sodium gluconate, 4 mM KCl, 3 mM MgCl2, 10 mM D-glucose, 10 mM HEPES; pH 7.4 adjusted with NaOH. The internal solution contained 122 mM cesium methane sulfonate, 1.8 mM MgCl2, 9 mM EGTA, 14 mM creatine phosphate (sodium salt), 4 mM Mg-ATP, 0.3 mM Na-GTP, 10 mM HEPES, pH 7.2 adjusted with CsOH. Borosilicate glass pipettes with a resistance of 3-5 MO were used. Whole cell currents were measured on an Axopatch 200B amplifier (Molecular De-vices) under the control of pClamp software. Signals were digitized through a Digidata1550B interface (Molecular Devices). Currents were filtered at 5 kHz (lowpass, Bessel) and sampled at 10 kHz prior to analysis with Clampfit software (Molecular Devices). All the plots and statistical tests were performed on Excel (Microsoft corp.). Basal Trpa1b whole cell currents were measured with a ramp protocol (˜100 to +100 mV, at a holding potential of 0 mV). Photoactive compounds were perfused into the recording chamber and a fluorescent light generated by mercury vapor short arc (U-HGLGPS, OLYMPUS) filtered through an ET-ECFP 434/17 nm filter and through a ET-mCherry 560 nm filter (Chroma Technology) was switched “on” and “off” for 10 s. All experiments were performed at room temperature. The p values were calculated using a two-tailed, paired Student's t-test.

A further series deals with T1, endogenous human TRPA1 (Homo sapiens, UniProt O75762).
T1 construct: human colonic fibroblast cells, CCD-18Co, which express human TRPA1 endogenously; endogenous in cells; host or cells: CCD-18Co (ATCC), untransfected
T1 sequence (O75762 whole entry): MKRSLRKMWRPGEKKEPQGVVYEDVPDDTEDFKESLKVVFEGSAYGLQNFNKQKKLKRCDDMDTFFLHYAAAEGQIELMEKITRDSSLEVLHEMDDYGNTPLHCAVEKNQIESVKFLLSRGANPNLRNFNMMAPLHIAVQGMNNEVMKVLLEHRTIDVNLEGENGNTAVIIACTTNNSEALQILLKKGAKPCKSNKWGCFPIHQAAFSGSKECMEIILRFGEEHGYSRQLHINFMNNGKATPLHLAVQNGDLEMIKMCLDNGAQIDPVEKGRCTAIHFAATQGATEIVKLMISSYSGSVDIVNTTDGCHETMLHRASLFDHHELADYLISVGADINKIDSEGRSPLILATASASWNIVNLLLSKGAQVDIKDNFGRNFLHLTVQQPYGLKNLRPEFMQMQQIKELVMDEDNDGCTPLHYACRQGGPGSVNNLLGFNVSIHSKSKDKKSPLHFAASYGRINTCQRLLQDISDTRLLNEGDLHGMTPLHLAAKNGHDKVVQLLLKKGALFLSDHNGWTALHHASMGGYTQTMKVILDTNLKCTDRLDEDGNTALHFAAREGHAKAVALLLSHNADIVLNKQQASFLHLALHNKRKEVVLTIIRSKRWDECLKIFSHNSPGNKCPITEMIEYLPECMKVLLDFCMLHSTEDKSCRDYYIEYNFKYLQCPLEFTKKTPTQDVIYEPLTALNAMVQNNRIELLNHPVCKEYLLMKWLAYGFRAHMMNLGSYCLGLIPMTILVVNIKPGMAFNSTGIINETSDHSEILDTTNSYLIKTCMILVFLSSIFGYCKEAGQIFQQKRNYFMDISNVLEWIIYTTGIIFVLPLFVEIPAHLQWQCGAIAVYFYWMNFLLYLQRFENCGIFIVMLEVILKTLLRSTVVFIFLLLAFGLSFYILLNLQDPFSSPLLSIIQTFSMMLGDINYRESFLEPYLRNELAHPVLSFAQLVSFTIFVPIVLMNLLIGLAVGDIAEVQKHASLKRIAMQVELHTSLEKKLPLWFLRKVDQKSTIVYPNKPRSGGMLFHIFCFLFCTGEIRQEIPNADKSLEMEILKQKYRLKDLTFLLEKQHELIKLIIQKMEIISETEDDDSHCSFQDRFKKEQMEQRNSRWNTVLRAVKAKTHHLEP
In words: Whole cell current in untransfected CCD-18Co cells. Format: cell-based. The note with it: untransfected CCD-18Co. The procedure: Immortalized HEK293T cells or human colonic fibroblast cells (CCD-18Co; ATCC) were used. HEK293T cells were plated on […] cover slips and transiently transfected with 10 μg of Trpa1b plasmid (pCMV-zTrpa1b-FLAG) (SEQ ID NO:3) and 5 μg of mNeonGreen cDNA (Allele Biotechnology), then grown in a 6 cm plate for 24-48 h. CCD-18Co were cultured in Eagle's minimal essential medium with 10% FBS, 1× penicillin and streptomycin. CCD-18Co cells were plated on 12 mm cover slips and transiently transfected with 5 μg of zTrpa1b plasmid (pCMV-zTrpa1b-FLAG) together with 5 μg of mNeonGreen cDNA (Allele Biotechnology), then grown in a […] plate for 48-72 h. After this time, the cover slips were transferred to a recording chamber containing an extracellular solution composed of 145 mM sodium gluconate, 4 mM KCl, 3 mM MgCl2, 10 mM D-glucose, 10 mM HEPES; pH 7.4 adjusted with NaOH. The internal solution contained 122 mM cesium methane sulfonate, 1.8 mM MgCl2, 9 mM EGTA, 14 mM creatine phosphate (sodium salt), 4 mM Mg-ATP, 0.3 mM Na-GTP, 10 mM HEPES, pH 7.2 adjusted with CsOH. […] Whole cell currents were measured on an Axopatch 200B amplifier (Molecular De-vices) under the control of pClamp software. […] Basal Trpa1b whole cell currents were measured with a ramp protocol (˜100 to +100 mV, at a holding potential of 0 mV). […] The p values were calculated using a two-tailed, paired Student's t-test.

In series [1] the test system is wild-type zebrafish larvae. Put plainly: Behavioral assay: light-induced motion response of wild-type larvae. Format: in vivo, Zebrafish (Danio rerio). The note with it: for light-induced motion response (in vivo activity): 3 dpf wild-type larvae, 1 s flashes WL1-WL4. On the procedure:
A total of 1,000 compounds were selected from the ChemBridge Corp. catalog. Compounds were dissolved in DMSO at a stock concentration of 1 μg/μL (˜1.5 mM). The library was screened at a 1:100 dilution in E3 solution for a final concentration of ˜15 μM. Negative controls were treated with an equal volume of DMSO. Groups of 3 larvae at 3 days post fertilization (dpf) were distributed into the wells of 96-well clear bottom black microplates (07-200-567; Fisher Scientific) in 150 μL E3 before the addition of small molecules. Stock solutions of compounds were added directly to zebrafish in the wells of a 96 well plate (Corning 3631), mixed, and allowed to incubate for 1 h in the dark at 28.5° C. prior to behavioral evaluation in the behavioral assay. Ordering information: 1 (5533696; ChemBridge); 3 (5538408; ChemBridge).
Larvae in each of the wells were exposed to four 1 second flashes of light stimulus in the following order: 450-500 nm (WL1), 415-455 nm (WL2), 352-402 nm (WL3), white light (WL4), with a 5 second inter-stimulus interval. Digital video recording was performed for 5 seconds before the first light stimuli and continued throughout the stimulation sequence. Band pass filters (Semrock FF02-475/50, FF02-435/40, FF01-377/50) were used to restrict the excitation light to the indicated wavelengths. […] 290 frames of digital video were recorded per well at 10 FPS using an EMCCD camera (C9100; Hamamatsu) mounted on an inverted compound microscope (AxioObserver A1; Zeiss) with a NA 0.03 1.25× objective and a barrier with a 0.7 mm diameter opening to restrict light scattering to the sample. MetaMorph software (Molecular Devices) was used to control the execution of TTL signals and camera capture using the built-in stream acquisition with trigger function. Each video was saved for review. Light stimuli were generated with an ozone free 300-Watt xenon bulb housed in a Lambda LS illuminator (Sutter Instruments). A dichroic mirror (T510LPXRXT; Chroma) was used for appropriate excitation of samples and bright field acquisition. Schott longpass absorption glass (RG610; Chroma) was added in the transmitted light path to reduce unwanted excitation to the well and to provide sufficient light for video recording. All behavioral experiments were conducted at room temperature. […]
To analyze digital video recordings, custom MetaMorph software scripts were used to automatically threshold the video to identify the area of larvae in each frame. Threshold images of the frames after each light activation event were overlaid to calculate a new combined threshold area. The motion index was calculated as the percentage change between the threshold area in the frame right before light activation and the new combined threshold area. This motion index correlates with the overall amount of motion in the well.

For a further series, the system named is Trpa1b. In words: Heartbeat interruption in larvae expressing Trpa1b in cardiomyocytes. The class given is in vivo, zebrafish. Conditions: 20 μM. On the procedure:
Heartbeat interruption experiments were performed in vivo on 2 dpf Tg(cm/c2:Trpa1b-2A-EGFP) larvae in a Trpa1b^−/− background. Larvae were pretreated with 20 μM of TRPswitch-A or TRPswitch-B in E3 at a final concentration of 1% DMSO for 1 h in the dark at 28.5° C. before experimental manipulation. Immediately prior to the onset of experiments, E3 solution was replaced with 0.2 mg/mL tricaine (Sigma, A5040) in E3 for anesthetizing the larvae. Violet light (352-402 nm) and green light (500-600 nm) were used for E to Z and Z to E isomerization, respectively. Violet and green light excitation were achieved using a band pass filter FF01-377/50 and an et500lp long pass barrier filter, respectively, together with a t600plxxr dichroic mirror and a 300-Watt xenon bulb light source (Sutter Instrument). Experiments were performed using a NA 0.6 40× air objective at room temperature. The zebrafish heart in the whole field of view was illuminated with 1 s violet light followed by various lengths of green light as indicated. Ventricle width measurement was performed using the ImageJ ‘measure’ function on the widest outer ventricle width every 100 ms.

A short description of series [2]: Photostationary state (PSS) determination. The class given is physicochemical. The note with it: for 365 nm PSS / 420 nm PSS / 495 nm PSS: estimated, UV/Vis spectroscopy in DMSO. The source says:
[…] In the latter case, the pure Z isomer spectrum was estimated using methods described in previous publications.

Series [3] in a line: UV-Vis absorbance, E/Z isomerization with violet and green light. Format: physicochemical. The note with it: UV-Vis absorbance in DMSO. The procedure:
Compounds were dissolved in DMSO at 250 μM and 260 μM for TRPswitch-A and TRPswitch-B, respectively and UV-Vis absorbance was measured using a NanoDrop 1000 (Thermo Scientific).

The mark [4] stands for this setting: UV-Vis spectroscopy in 30% water:DMSO, extrapolated pure Z spectrum, listed as TRPswitch-A.

Take `C=CCN=C=S` [AITC, allyl isothiocyanate, reference compound]: the “agonist-activated Trpa1b currents” value with zebrafish Trpa1b (positive control) was “activated currents”. Moreover, the “response of human TRPA1 current” value on endogenous human TRPA1 is recorded as “responded”.
In the case of `O=C(Nc1ccc(/N=N/c2ccccc2)c(NC(=O)c2ccco2)c1)c1ccco1` [Compound 1, (E)-N,N′-(4-(phenyldiazenyl)-1,3-phenylene)bis(furan-2-carboxamide)], the “light-induced motion response (in vivo activity)” value (“light-induced motion response” for short) in series [1] was “light-induced motion response across multiple wavelengths”. Moreover, the “bandwidth with the most activity” value in series [1] (light-induced motion response) is listed as 415-455 nm. For the same compound, the “Trpa1b current upon violet light stimulation” value in the series with zebrafish Trpa1b (10 μM, compared to baseline) is “high amplitude currents”. In addition, in the series on zebrafish Trpa1b (10 μM, same cell), the “Trpa1b photocurrent upon subsequent green light stimulation” value is given as “recovered to its baseline current magnitude”. In the series with zebrafish Trpa1b (+100 mV), the “current density fold increment after subsequent pulse of green light” value is on record as 1.15±0.17 fold and the “current density fold increment upon violet light illumination” value amounted to 2.36±0.50 fold. In the series on zebrafish Trpa1b (−100 mV), the “current density fold increment after subsequent pulse of green light” value was determined as 3.71±1.31 fold and the “current density fold increment upon violet light illumination” value is listed as 4.35±1.44 fold. Besides, the “ventricle heartbeat after 1 s violet light” value with Trpa1b (1 h pre-incubation) is “could be stopped”. In the series on Trpa1b (after violet light), the “ventricular rhythm after 1 s green light” value is “re-stored”. Besides, in series [2] (1H NMR in DMSO-d6), the “365 nm PSS (E-Z)” value was determined as 79% Z, the “420 nm PSS (E-Z)” value came to 53% Z and the “495 nm PSS (Z-E)” value turned out to be 71% E. Also, in series [2] (setting [4]), the “Estimated 365 nm PSS (E-Z)” value is given as 86% Z and the “Estimated 495 nm PSS (Z-E)” value is 73% E. In addition, the “E/Z photoswitching with violet and green light” value in series [3] is “incomplete”.
In the case of `O=C(Nc1ccccc1/N=N/c1ccccc1)c1ccco1` [Compound 2, (E)-N-(2-(phenyldiazenyl)phenyl)furan-2-carboxamide], the “light-induced motion response” value in series [1] was “reduced activity”. Moreover, in series [2], the “365 nm PSS” value was 13% E, the “420 nm PSS” value was 56% E and the “495 nm PSS” value is reported as 79% E.
On to `O=C(Nc1ccc(/N=N/c2ccccc2)c(NC(=O)c2cccs2)c1)c1cccs1` [Compound 3, (E)-N,N′-(4-(phenyldiazenyl)-1,3-phenylene)bis(thiophene-2-carboxamide)], for which, in series [1], the “light-induced motion response” value is recorded as “slightly lower photoresponse”. Also, in series [2], the “365 nm PSS” value was 22% E, the “420 nm PSS” value is reported as 38% E and the “495 nm PSS” value is 76% E.
In the case of `N#Cc1ccc(/N=N/c2ccc(NC(=O)c3ccco3)cc2NC(=O)c2ccco2)cc1` [Compound 4, (E)-N,N′-(4-((4-cyanophenyl)diazenyl)-1,3-phenylene)bis(furan-2-carboxamide)], in series [1], the “light-induced motion response” value is given as “far less active”. Further, in series [2], the “365 nm PSS” value is given as 47% E, the “420 nm PSS” value is listed as 32% E and the “495 nm PSS” value was 61% E.
As to `N#Cc1ccc(/N=N/c2ccc(NC(=O)c3cccs3)cc2NC(=O)c2cccs2)cc1` [Compound 5, (E)-N,N′-(4-((4-cyanophenyl)diazenyl)-1,3-phenylene)bis(thiophene-2-carboxamide)], the “light-induced motion response” value in series [1] is recorded as “far less active”. In series [2], the “365 nm PSS” value is 41% E, the “420 nm PSS” value was 30% E and the “495 nm PSS” value is given as 61% E.
In the same order, the values of `O=C(Nc1ccc(/N=N/c2ccc([N+](=O)[O-])cc2)c(NC(=O)c2ccco2)c1)c1ccco1` [Compound 6, (E)-N,N′-(4-((4-nitrophenyl)diazenyl)-1,3-phenylene)bis(furan-2-carboxamide)] are “far less active”, 66% E, 42% E and 64% E.
Take `O=C(Nc1ccc(/N=N/c2ccc([N+](=O)[O-])cc2)c(NC(=O)c2cccs2)c1)c1cccs1` [Compound 7, (E)-N,N′-(4-((4-nitrophenyl)diazenyl)-1,3-phenylene)bis(thiophene-2-carboxamide)]: in series [1], the “light-induced motion response” value is given as “far less active”. In addition, in series [2], the “365 nm PSS” value is 69% E, the “420 nm PSS” value is 46% E and the “495 nm PSS” value is 70% E.
